Results from EP1247803A2, “Indolinone compounds suitable for modulation of protein kinases” (Sugen, Inc., priority 1996, dated 1998).

Key:
FLK-1 receptor = target: T1, FLK-1 receptor (Mus musculus, UniProt P35918); experiment: FLK-1 ELISA (kinase activity of the FLK-1 receptor in FLK-1/NIH3T3 cells, VEGF stimulated); type: cell-based; parameters: concentration or dose not given beside the values
T1 construct: expressed in transfected cells; host or cells: NIH3T3 C7#3
Summary of the method: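 NIH3T3 C7#3 cells expressing FLK-1 were seeded at 25.000 cells/well, serum-starved overnight in 0.1% FBS, then treated with compound for two hours at 37°C (final DMSO 0.5%) before VEGF stimulation. Receptor was captured on anti-rabbit IgG-coated ELISA plates bearing affinity-purified anti-FLK-1 antiserum.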

PDGF-R = PDGF-R (Homo sapiens, UniProt P09619); experiment: PDGF-R ELISA; type: cell-based
Sequence of PDGF-R (P09619 33-1106, species assumed): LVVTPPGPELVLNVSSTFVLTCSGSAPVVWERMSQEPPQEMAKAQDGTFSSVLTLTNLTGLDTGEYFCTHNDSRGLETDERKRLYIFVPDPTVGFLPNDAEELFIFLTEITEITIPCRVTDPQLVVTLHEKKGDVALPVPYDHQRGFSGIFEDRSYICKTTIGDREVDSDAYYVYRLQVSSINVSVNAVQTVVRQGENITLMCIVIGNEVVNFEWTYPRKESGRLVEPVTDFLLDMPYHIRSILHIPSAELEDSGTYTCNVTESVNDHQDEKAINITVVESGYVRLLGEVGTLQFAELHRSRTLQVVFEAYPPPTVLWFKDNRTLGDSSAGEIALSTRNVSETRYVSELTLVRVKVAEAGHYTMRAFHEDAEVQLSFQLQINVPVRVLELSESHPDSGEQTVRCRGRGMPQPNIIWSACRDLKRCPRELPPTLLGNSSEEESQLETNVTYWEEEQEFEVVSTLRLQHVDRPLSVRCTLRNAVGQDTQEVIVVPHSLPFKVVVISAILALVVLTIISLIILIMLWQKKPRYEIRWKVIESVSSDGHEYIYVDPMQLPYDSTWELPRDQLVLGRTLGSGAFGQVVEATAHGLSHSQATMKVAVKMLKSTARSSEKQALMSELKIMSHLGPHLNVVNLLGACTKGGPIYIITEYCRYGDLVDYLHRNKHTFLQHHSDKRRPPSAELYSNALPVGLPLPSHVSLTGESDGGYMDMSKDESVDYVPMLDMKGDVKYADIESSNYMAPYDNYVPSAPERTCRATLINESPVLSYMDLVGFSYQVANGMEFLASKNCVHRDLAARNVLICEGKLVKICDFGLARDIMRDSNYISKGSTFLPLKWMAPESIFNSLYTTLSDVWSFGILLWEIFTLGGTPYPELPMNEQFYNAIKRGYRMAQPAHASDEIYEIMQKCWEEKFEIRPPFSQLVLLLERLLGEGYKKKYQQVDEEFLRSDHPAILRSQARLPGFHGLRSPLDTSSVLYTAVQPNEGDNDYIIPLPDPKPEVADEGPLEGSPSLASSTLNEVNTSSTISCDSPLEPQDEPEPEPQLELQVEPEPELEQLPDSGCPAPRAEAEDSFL
Excerpt: A PDGF-R ELISA is described in International Patent Publication No. WO 96/40116, published December 19, 1996 by Tang et al.

T1 sequence (P35918 20-1345): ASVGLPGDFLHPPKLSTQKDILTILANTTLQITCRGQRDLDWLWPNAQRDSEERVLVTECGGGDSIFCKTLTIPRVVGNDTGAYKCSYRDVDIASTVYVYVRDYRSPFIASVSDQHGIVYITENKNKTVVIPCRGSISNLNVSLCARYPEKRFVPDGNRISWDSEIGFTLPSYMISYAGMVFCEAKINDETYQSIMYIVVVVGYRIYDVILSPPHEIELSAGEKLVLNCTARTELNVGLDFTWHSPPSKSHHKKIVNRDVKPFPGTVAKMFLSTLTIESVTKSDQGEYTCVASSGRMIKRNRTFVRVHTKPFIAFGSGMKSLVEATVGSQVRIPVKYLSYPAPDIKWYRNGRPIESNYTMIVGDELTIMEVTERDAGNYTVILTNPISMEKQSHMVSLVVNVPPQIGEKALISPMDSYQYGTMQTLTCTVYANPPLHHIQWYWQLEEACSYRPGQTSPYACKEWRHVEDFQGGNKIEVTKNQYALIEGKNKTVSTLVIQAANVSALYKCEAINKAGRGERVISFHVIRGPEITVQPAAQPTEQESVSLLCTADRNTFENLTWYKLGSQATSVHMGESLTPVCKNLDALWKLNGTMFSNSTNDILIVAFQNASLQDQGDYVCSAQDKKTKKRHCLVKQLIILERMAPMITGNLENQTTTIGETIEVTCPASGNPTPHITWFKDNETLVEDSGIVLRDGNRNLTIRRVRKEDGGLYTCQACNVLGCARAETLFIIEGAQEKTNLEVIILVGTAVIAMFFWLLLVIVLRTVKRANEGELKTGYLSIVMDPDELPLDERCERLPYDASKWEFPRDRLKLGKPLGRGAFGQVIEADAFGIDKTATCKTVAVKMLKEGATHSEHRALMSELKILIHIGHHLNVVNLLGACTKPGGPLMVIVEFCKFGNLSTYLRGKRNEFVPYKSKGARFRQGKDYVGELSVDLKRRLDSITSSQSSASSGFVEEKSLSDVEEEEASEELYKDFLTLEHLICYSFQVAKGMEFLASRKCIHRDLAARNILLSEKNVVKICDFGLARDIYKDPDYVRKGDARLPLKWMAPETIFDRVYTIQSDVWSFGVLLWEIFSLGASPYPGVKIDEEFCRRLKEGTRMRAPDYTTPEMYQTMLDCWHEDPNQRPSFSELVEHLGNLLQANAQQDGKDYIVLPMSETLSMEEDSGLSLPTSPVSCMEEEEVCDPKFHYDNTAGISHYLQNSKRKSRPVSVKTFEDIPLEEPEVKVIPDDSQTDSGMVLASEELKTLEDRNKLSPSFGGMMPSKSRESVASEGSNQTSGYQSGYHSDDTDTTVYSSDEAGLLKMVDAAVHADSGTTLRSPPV

Structure (SMILES) | Fik Kinase %Inhibition (FLK-1 receptor) | PDGF Kinase %Inhibition (PDGF-R)
Cc1cn(C)cc1C=C1C(=O)Nc2ccc(S(=O)(=O)N3CCOCC3)cc21 [10726/F06] | 17.7% | 17.0%
CCOC(=O)c1[nH]c(C=C2C(=O)Nc3ccc(S(=O)(=O)N4CCOCC4)cc32)c(C(=O)OC)c1C [10726/F03] | 8.3% | 5.6%
CNS(=O)(=O)c1ccc2c(c1)C(=Cc1ccc(Br)o1)C(=O)N2 [10726/D05] | 8.2% | 39.1%
O=C1Nc2ccc(S(=O)(=O)Nc3ccc(C(F)(F)F)cc3)cc2C1=Cc1ccc(Br)o1 [10726/E05] | 8.1% | 4.3%
CNS(=O)(=O)c1ccc2c(c1)C(=C1C(=O)Nc3ccccc31)C(=O)N2 [10726/D09] | 14.4% | 22.1%
O=C1Nc2ccc(I)cc2C1=Cc1cc(O)ccc1O [10727/B10] | 3.9% | 29.7%
O=C1Nc2c(Br)cc(Br)cc2C1=Cc1ccccc1Sc1ccc(Cl)cc1 [10727/A05] | 4.2% | 5.7%
CCc1ccc(C=C2C(=O)Nc3ccc(S(=O)(=O)N4CCOCC4)cc32)s1 [10726/F10] | 7.0% | 9.4%
CCc1cc(CC)c(C=C2C(=O)Nc3ccc(Br)c(C)c32)[nH]1 [10727/C03] | -3.2% | 11.5%
O=C1Nc2ccc(I)cc2C1=Cc1coc2ccccc2c1=O [10727/B07] | 8.4% | 0.6%
CCc1cc(CC)c(C=C2C(=O)Nc3c(Br)cc(Br)cc32)[nH]1 [10727/A03] | 6.3% | -4.5%
O=C1Nc2ccc(CCCl)cc2C1=Cc1cc(O)c2c(c1O)CCCC2 [10726/G07] | -13.7% | -107.6%
O=C1Nc2ccc(F)cc2C1=C1C(=O)Nc2ccc(S(=O)(=O)N3CCOCC3)cc21 [10726/F08] | 15.3% | 28.4%
O=C1Nc2ccc(CCCl)cc2C1=Cc1ccc(Br)o1 [10726/G05] | 14.9% | 6.2%
O=C1Nc2ccc(I)cc2C1=Cc1cc(Cl)cc(Br)c1O [10727/B04] | 46.0% | 21.0%
CNS(=O)(=O)c1ccc2c(c1)C(=Cc1ccc(OC)cc1)C(=O)N2 [10726/D11] | 10.5% | 30.9%
O=C1Nc2ccccc2C1=C1C(=O)Nc2ccc(S(=O)(=O)N3CCOCC3)cc21 [10726/F09] | 9.6% | -2.6%
